Measured values reported in paper PMC12663137 (Nature Communications, 2025).
“And” between values parts separate entries of the source, which are not always exact repeats. Equal entries are not always repeated.

Key:
[1] = target: T1, SV2A WT and mutants (Homo sapiens, UniProt Q7L0J3, C693A); assay: Relative binding of levetiracetam: 3H-UCB-J (10 nM) binding in presence of 10 µM levetiracetam (Fig. 2C); details: C693A; 10 µM levetiracetam; SV2AWT defined as 100%
T1 construct: expressed in transfected cells; host or cells: HEK293 (ATCC CRL-1573), crude membranes
Description: (§1) Data are shown as mean ± s.d.; n = 6 biological replicates. […] Data shown as mean ± s.d.; n = 6 biological replicates. D Superposition of SV2A-apo (gray) and SV2A–Lev (green), showing helix-to-loop transition and inward movement of TM1 in levetiracetam-bound state. […] Source data for (B, C) are provided as a Source data file.
(§2) Ligand binding studies were carried out using crude membranes prepared from HEK293 cells (ATCC, CRL-1573) overexpressing mVenus-SV2AWT or SV2AEM. Membranes were prepared either from transiently transfected cells or from baculovirus-infected cells as described previously. Cells were washed with DPBS (Ca^2+ and Mg^2+ free), followed by resuspending in cold SH buffer (10 mM HEPES-Tris pH 7.4, 320 mM sucrose) containing protease inhibitor cocktail (MedChemExpress) to a density of 10^7 cells/ml. This cell suspension was homogenized by passing through a bead homogenizer (Isobiotec) with 10-micron clearance bead on ice. The lysate was then centrifuged at 4000 × g for 5 min at 4 °C, and the supernatant was aliquoted, frozen in liquid nitrogen, and stored at −80 °C. The mVenus fluorescence estimated using fluorescence size-exclusion chromatography (FSEC) was used to normalize expression levels of mVenus-SV2A mutants studied as detailed previously. For all binding studies, membranes containing […] protein (estimated by BCA method) per reaction were used.

[2] = target: T2, SV2A WT and mutants (Homo sapiens, UniProt Q7L0J3); assay: as above; details: WT; 10 µM levetiracetam; SV2AWT defined as 100%
T2 construct: expressed in transfected cells; host or cells: HEK293 (ATCC CRL-1573), crude membranes
Description: as §1, §2

[3] = target: T3, SV2A WT and mutants (Homo sapiens, UniProt Q7L0J3, N690A); assay: as above; details: N690A
T3 construct: expressed in transfected cells; host or cells: HEK293 (ATCC CRL-1573), crude membranes
Description: as §1, §2

[4] = target: T4, SV2AWT (Homo sapiens, UniProt Q7L0J3); assay: Competitive displacement of 10 nM 3H-UCB-J, SV2AWT membranes (Fig. 1A); type: binding; details: read-out: Binding of 3H-UCB-J (%), SV2A_WT
T4 construct: expressed in transfected cells; host or cells: HEK293 (ATCC CRL-1573), crude membranes
Description: as §2
(§3) To obtain dose-response curves of studied SV2A ligands, membranes diluted in 0.2 ml binding buffer (50 mM Tris-Cl, pH 7.4, and 2 mM MgCl2) were incubated with indicated concentrations of ligands for 30 min at 4 °C. […] The binding reaction was arrested by trapping membranes on Unifilter-GF/C 96-well filter plates (Revvity) pre-soaked with 0.1%(w/v) polyethyleneimine (PEI). Membranes were then washed four times with 0.2 ml of cold binding buffer, dried, and 40 µl of scintillation liquid was added to each well. Radioactivity was monitored in MicroBeta2 plate counter (Revvity). Estimates for IC50 were obtained from fitting the data to three-parameter dose-response curves using GraphPad Prism 10.

[5] = target: T5, SV2AEM (Homo sapiens, UniProt Q7L0J3); assay: Competitive displacement of 10 nM 3H-UCB-J, SV2AEM membranes (Fig. 1A); type: binding
T5 construct: expressed in transfected cells; host or cells: HEK293 (ATCC CRL-1573), crude membranes (transient transfection or baculovirus)
Description: as §2, §3

[6] = target: T6, SV2A WT, W300A, W666A, D670A (Homo sapiens, UniProt Q7L0J3); assay: Displacement of 10 nM 3H-UCB-J by levetiracetam, binding site mutations (Fig. 2B); details: read-out: Binding of 3H-UCB-J (%), WT
T6 construct: expressed in transfected cells; host or cells: HEK293 (ATCC CRL-1573), crude membranes
Description: as §2, with “Membranes” for “Ligand binding studies were carried out using crude membranes prepared from HEK293 cells (ATCC, CRL-1573) overexpressing mVenus-SV2AWT or SV2AEM. Membranes”
as §3

[7] = tested on: SV2A WT, W300A, W666A, D670A; assay: as above; parameters: species or system human; details: Fig. 2B
Description: as §2, with “Membranes” for “Ligand binding studies were carried out using crude membranes prepared from HEK293 cells (ATCC, CRL-1573) overexpressing mVenus-SV2AWT or SV2AEM. Membranes”
as §3

T4 sequence (Q7L0J3 whole entry): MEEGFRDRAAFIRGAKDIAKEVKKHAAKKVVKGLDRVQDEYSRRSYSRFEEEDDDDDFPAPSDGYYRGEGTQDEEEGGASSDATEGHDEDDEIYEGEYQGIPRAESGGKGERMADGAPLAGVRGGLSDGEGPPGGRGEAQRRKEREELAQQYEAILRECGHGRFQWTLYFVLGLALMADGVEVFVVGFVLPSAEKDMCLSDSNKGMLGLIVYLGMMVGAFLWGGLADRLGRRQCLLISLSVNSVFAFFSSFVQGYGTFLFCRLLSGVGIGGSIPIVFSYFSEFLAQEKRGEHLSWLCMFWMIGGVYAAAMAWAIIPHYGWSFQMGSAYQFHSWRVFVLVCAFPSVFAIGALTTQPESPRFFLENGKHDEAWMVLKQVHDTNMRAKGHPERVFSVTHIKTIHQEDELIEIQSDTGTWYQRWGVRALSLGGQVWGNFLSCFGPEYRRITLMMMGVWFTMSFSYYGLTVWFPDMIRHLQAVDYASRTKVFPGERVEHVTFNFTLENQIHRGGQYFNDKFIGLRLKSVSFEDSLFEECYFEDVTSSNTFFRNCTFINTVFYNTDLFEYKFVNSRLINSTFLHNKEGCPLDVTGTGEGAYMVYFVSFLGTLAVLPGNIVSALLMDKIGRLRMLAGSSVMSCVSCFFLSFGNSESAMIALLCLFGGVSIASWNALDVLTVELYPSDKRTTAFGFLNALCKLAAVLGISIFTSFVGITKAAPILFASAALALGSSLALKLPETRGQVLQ
T2 sequence (Q7L0J3 whole entry, change not shown): as the sequence (Q7L0J3 whole entry) above
T5 sequence (Q7L0J3 141-742): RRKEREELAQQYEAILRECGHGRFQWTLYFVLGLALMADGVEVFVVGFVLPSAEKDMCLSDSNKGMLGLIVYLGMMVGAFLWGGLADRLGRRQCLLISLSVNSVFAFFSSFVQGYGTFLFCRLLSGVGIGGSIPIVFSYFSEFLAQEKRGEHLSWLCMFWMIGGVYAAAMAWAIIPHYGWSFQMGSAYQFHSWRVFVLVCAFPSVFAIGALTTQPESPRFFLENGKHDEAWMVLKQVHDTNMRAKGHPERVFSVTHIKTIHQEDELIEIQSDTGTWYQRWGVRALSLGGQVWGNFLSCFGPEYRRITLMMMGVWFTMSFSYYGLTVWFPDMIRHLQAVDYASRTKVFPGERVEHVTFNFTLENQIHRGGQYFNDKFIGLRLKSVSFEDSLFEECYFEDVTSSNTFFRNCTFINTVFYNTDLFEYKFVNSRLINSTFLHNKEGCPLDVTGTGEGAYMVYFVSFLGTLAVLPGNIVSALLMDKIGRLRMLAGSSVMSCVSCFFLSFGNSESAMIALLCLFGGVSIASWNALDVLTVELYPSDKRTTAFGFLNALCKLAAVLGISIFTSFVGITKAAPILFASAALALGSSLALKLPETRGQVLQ
T3 sequence (Q7L0J3 whole entry N690A): as the sequence (Q7L0J3 whole entry) above, with N690A counted along it
T1 sequence (Q7L0J3 whole entry C693A): as the sequence (Q7L0J3 whole entry) above, with C693A counted along it
T6 sequence (Q7L0J3 whole entry W300A/W666A/D670A): as the sequence (Q7L0J3 whole entry) above, with W300A, W666A, D670A counted along it

With `CC[C@@H](C(N)=O)N1CCCC1=O` [levetiracetam] the “Levetiracetam Binding (%)” value [1] was 135.59% and 126.18% and 71.93% and 77.61% and 128.23% and 117.60%, the “Levetiracetam Binding (%)” value [2] was 102.09% and 117.44% and 93.09% and 74.67% and 113.64% and 99.03% and the “effect of mutation on levetiracetam binding” value [3] was “enhances levetiracetam binding”. For the same compound, the “Levetiracetam Binding (%)” value ([3]; 10 µM levetiracetam, SV2AWT defined as 100%) was 143.32% and 133.74% and 159.43% and 149.90% and 155.36% and 156.86%, the remaining activity at 300 µM ([4]; Log [Levetiracetam] (M) -3.523) was 10.8% and the remaining activity at 100 µM ([4]; Log [Levetiracetam] (M) -4.000) was 22.8%. The remaining activity at 10 µM ([4]; Log [Levetiracetam] (M) -5.000) was 66.1%, the remaining activity at 1 µM ([4]; Log [Levetiracetam] (M) -6.000) was 95% and the remaining activity at 0.1 µM ([4]; Log [Levetiracetam] (M) -7.000) was 95.2%. For the same compound, the remaining activity at 0.01 µM ([4]; Log [Levetiracetam] (M) -8.000) was 92.5%, the IC50 [5] was 9.5 µM and the “binding response of SV2AEM vs wild-type SV2A” value ([5]; competition with 3H-UCB-J) was “comparable to those of wild-type SV2A”. For the same compound, the remaining activity at 10 µM ([5]; read-out: Binding of 3H-UCB-J (%), SV2A_EM, Log [Levetiracetam] (M) -5.000) was 53.7%, the 3H-UCB-J binding at 1000 µM ([6]; Log [Levetiracetam] (M) -3.000) was 6.22% and the 3H-UCB-J binding at 100 µM ([6]; Log [Levetiracetam] (M) -4.000) was 31.9%. The 3H-UCB-J binding at 3 µM ([6]; Log [Levetiracetam] (M) -5.523) was 73.5%, the 3H-UCB-J binding at 1 µM ([6]; Log [Levetiracetam] (M) -6.000) was 84.4% and the “reduction of levetiracetam binding by mutating Trp300, Trp666, Asp670” value [7] was ~1000 fold.
